Measurements as given in patent publication US20100247593A1, “NOVEL COMPOUNDS AND PHARMACEUTICAL PREPARATIONS” (priority 2007, published 2010).

Experiments:
male mice = test: Mice sexual behaviour test (number of mounts); assay type: in vivo
[1] = Stability in CDCl3 solution according to NMR spectra; assay type: physicochemical; conditions: CDCl3, 25° C.
Method: NMR spectra were recorded with a Varian UNITY INOVA 600 MHz spectrometer equipped with a cryoprobe in CDCl3 solution at 25° C. Chemical shifts are reported in ppm relative to residual solvent signal (δ(^1H) 7.25 ppm, δ(^13C) […]). Two-dimensional spectra recorded included DQF-COSY, NOESY, TOCSY, sensitivity-enhanced ^13C-HSQC and ^13C-^1H HMBC. Pulsed-field gradients were used for all ^13C correlation spectra. The NOESY mixing time was 800 ms, the TOCSY one 70 ms. ^13C-HMBC spectra were recorded with coupling evolution delay for the generation of multiple-bond correlations set to 62.5 ms. All 2D spectra were run with 4096*1024 points data matrix, giving τ2max=250 ms for ^1H nucleus in acquisition dimension and τ1max=100 ms for ^1H or τ1max=50 ms for ^13C for indirect dimension. Prior to Fourier transform the data matrix was zero-filled twice and multiplication by shifted sine-bell window function applied. For ^1H-^13C HMBC the magnitude spectra were calculated. Graphs from the spectra recorded are shown in drawing section FIGS. 15-27.

Row | activity (Umnt) = 1/EC50 (male mice; subcutaneous x3 days, 7th day as basis) | SMILES | increase of number of mounts counted during the 3 hour period (male mice; subcutaneous 0.4 mg/kg x3 days, D4) | sexual activity (number of mounts over a 3 hour period) (male mice; subcutaneous in sun-flower oil x3 days, lowest dose (0.004 mg/kg)) | sexual activity (number of mounts over a 3 hour period) (male mice; subcutaneous in sun-flower oil x3 days, two highest doses (0.4 and 0.04 mg/kg), D-4, D-7, D-14) | time course of the effect on number of mounts (male mice; subcutaneous x3 days, tested D-4, D-7, D-14) | stability in CDCl3 solution according to the NMR spectra [1] | sexual activity (number of mounts over a 3 hour period) (male mice; subcutaneous in sun flower-oil x3 days, highest dose (4 mg/kg), all days tested (D-4, D-7, D-14)) | sexual activity (number of mounts over a 3 hour period) (male mice; subcutaneous x3 days, two lower doses (0.4 and 0.04 mg/kg))
1 | about 15 U/mg | COC(=O)CC1C2(C)CC34OC5(C)OC67C(CC(=O)OC6C3(OC(=O)C(C)C)C2OC(=O)C(C)C)C(C)(C(=O)c2ccoc2)CCC7(O5)C14C (stereo not drawn) [R306] | about 3.5 fold | tendency of increase | significant increases | peaked at D7, while clear effects were seen also at D14 | stable during several weeks | – | –
2 | – | COC(=O)CC1C2(C)CC34OC5(C)OC67C(C(C(=O)C(C)C)C(=O)OC6C3(O)C2OC(C)=O)C(C)(C(OC(C)=O)c2ccoc2)CCC7(O5)C14C (stereo not drawn) [R310] | – | – | – | – | consisted of two isomers which slowly interchanged | Significant increases | significantly increased only on D-4
